39 compounds from ChEMBL document CHEMBL4739717, “Methods of treating cartilage disorders through inhibition of clk and dyrk” (2020) can be followed below.

Each structure is given as a SMILES string.

Test [1] can be described thus: Effect on Wnt signaling pathway in human SW480 cells harbouring TCF/LEF luciferase reporter gene and SP5-Luc reporter gene incubated for 36 to 48 hrs by luminescence assay. It counts as cell-based. On the technique in general: Reporter assays use an easily measured gene product as a stand-in for the process of interest.
A short description of test [2]: Induction of chondrogenesis in human MSC assessed as incubated for 6 days by rhodamine B and Nile red staining based imaging analysis. Type of test: functional. The note with it: bmmsc.
In test [3] the target is Dual specificity tyrosine-phosphorylation-regulated kinase 1A (Homo sapiens, UniProt Q13627). Nature of the test: Inhibition of recombinant DYRK1A (unknown origin) using Ser/Thr 18 peptide as substrate incubated for 1 hr in presence of ATP by FRET assay.
A short description of test [4]: Induction of chondrogenesis in human MSC assessed as maximum activity at 300 nM incubated for 6 days by rhodamine B and Nile red staining based imaging analysis relative to control. It counts as functional. Particulars: BMMSC, 144 h, time 6 day.

As a reminder, the EC50 is the concentration that produces a half-maximal response. As a reminder, the Emax is the size of the effect at its maximum, as opposed to the concentration needed.

As to `CC(C)C(=O)Nc1cncc(-c2ccc3[nH]nc(-c4nc5c(-c6ccccc6F)cncc5[nH]4)c3n2)c1`, the values for the EC50 in test [1], in test [2] and in test [3] were above 10 µM, 0.01 µM and 0.03 µM, respectively. Besides, in test [4], the Emax at 0.3 µM came out at 181%.

With `CN(C)Cc1cncc(-c2ccc3[nH]nc(-c4cc5c(N6CCCCC6)cccc5[nH]4)c3c2)c1`, the EC50 is 0.575 µM in test [1], 0.01 µM in test [2] and 0.071 µM in test [3]. In addition, in test [4], the Emax at 0.3 µM amounted to 205%.

`Nc1cncc(-c2ccc3[nH]nc(-c4nc5c(-c6ccccc6F)nccc5[nH]4)c3n2)c1`: the results for the EC50 in test [1], in test [2] and in test [3] were above 10 µM, 0.01 µM and 0.008 µM, respectively. Besides, in test [4], the Emax at 0.3 µM stood at 108%.

As to `CCC(=O)Nc1cncc(-c2cnc3[nH]nc(-c4nc5c(-c6ccc(F)cc6)cncc5[nH]4)c3c2)c1`, the EC50 worked out at 0.011 µM in test [1], 0.3 µM in test [2] and 0.011 µM in test [3]. For the same compound, the maximum response (Emax) at 0.3 µM in test [4] was 143%.

`CCC(=O)Nc1cncc(-c2cc3c(-c4cc5c(N6CCN(C)CC6)nccc5[nH]4)n[nH]c3cn2)c1`: the EC50 in test [1] was above 10 µM; in test [2], 0.03 µM; in test [3], 0.003 µM. Besides, in test [4], the Emax at 0.3 µM is 70%.

Regarding `Nc1cncc(-c2ccc3[nH]nc(-c4nc5c(-c6ccccc6F)cncc5[nH]4)c3n2)c1`, the EC50 is above 10 µM in test [1], 0.01 µM in test [2] and 0.007 µM in test [3]. For the same compound, the Emax at 0.3 µM in test [4] worked out at 98.2%.

Regarding `c1cncc(-c2ccc3[nH]nc(-c4nc5c(-c6cccnc6)ccnc5[nH]4)c3n2)c1`, the EC50 in test [1] was found to be 1.51 µM; in test [2], 0.3 µM; in test [3], 0.028 µM. In addition, in test [4], the Emax at 0.3 µM was determined as 94.6%.

Take `COc1cccc(-c2cncc3[nH]c(-c4n[nH]c5ccc(-c6cccnc6)nc45)nc23)c1`: the EC50 is above 10 µM in test [1], 0.03 µM in test [2] and 0.03 µM in test [3]. In addition, in test [4], the Emax at 0.3 µM worked out at 59.2%.

Turning to `O=C(Nc1cncc(-c2cc3c(-c4cc5cnccc5[nH]4)n[nH]c3cn2)c1)c1ccccc1`, the EC50 in test [1] stood at 0.58 µM; in test [2], 0.01 µM; in test [3], 0.003 µM. Moreover, the maximum response (Emax) at 0.3 µM in test [4] came out at 152%.

As for `COc1ccc(NC(=O)c2n[nH]c3ccc(-c4cncc(CN5CCCCC5)c4)cc23)cn1`, the values for the half-maximal effective concentration (EC50) in test [1], in test [2] and in test [3] were 0.015 µM, 0.3 µM and 0.001 µM, respectively. For the same compound, in test [4], the maximal effect (Emax) at 0.3 µM was found to be 138%.

As to `Nc1cncc(-c2cc3c(-c4cc5c(-c6ccccc6F)nccc5[nH]4)n[nH]c3cn2)c1`, the results for the EC50 in test [1], in test [2] and in test [3] were 0.224 µM, 0.01 µM and 0.005 µM, respectively. Further, in test [4], the Emax at 0.3 µM came out at 117%.

For `Nc1cncc(-c2cnc3[nH]nc(-c4nc5c(-c6ccccc6F)ccnc5[nH]4)c3c2)c1`, the values for the EC50 in test [1], in test [2] and in test [3] were 0.0123 µM, 0.3 µM and 0.05 µM, respectively. Besides, the Emax at 0.3 µM in test [4] amounted to 59.9%.

Regarding `CN(C)CCNc1cc(F)cc(-c2cncc3[nH]c(-c4n[nH]c5ncc(-c6cccnc6)cc45)nc23)c1`, the EC50 in test [1] was 0.021 µM; in test [2] it was 0.3 µM; in test [3] it was 0.005 µM. Besides, the Emax at 0.3 µM in test [4] came to 129%.

As for `O=C(Nc1cncc(-c2cnc3[nH]nc(-c4nc5c(-c6cccc(F)c6)cncc5[nH]4)c3c2)c1)C1CC1`, the EC50 was found to be 0.011 µM in test [1], 0.01 µM in test [2] and 0.075 µM in test [3]. Also, the maximum response (Emax) at 0.3 µM in test [4] came out at 148%.

Turning to `CN(C)c1cncc(-c2cc3c(-c4cc5cnccc5[nH]4)n[nH]c3cn2)c1`, the values for the EC50 in test [1], in test [2] and in test [3] were 3.06 µM, 0.3 µM and 0.012 µM, respectively. Besides, the maximal effect (Emax) at 0.3 µM in test [4] came to 101%.

Take `O=C(Nc1cncc(-c2ccc3[nH]nc(-c4cc5c(-c6ccncc6)nccc5[nH]4)c3c2)c1)C1CCCC1`: the results for the EC50 in test [1], in test [2] and in test [3] were above 10 µM, 0.03 µM and 0.011 µM, respectively. Further, in test [4], the Emax at 0.3 µM was found to be 114%.

With `Fc1ccccc1-c1nccc2[nH]c(-c3n[nH]c4cnc(-c5cn[nH]c5)cc34)cc12`, the EC50 was 0.0305 µM in test [1], 0.01 µM in test [2] and 0.063 µM in test [3]. For the same compound, the Emax at 0.3 µM in test [4] came out at 89.2%.

For the compound `Cc1ccncc1-c1ccc2[nH]nc(-c3cc4ccncc4[nH]3)c2c1`, the EC50 in test [1] stood at 0.191 µM; in test [2] it was 0.3 µM; in test [3] it was 0.021 µM. The Emax at 0.3 µM in test [4] amounted to 161%.

For the compound `CC(C)Nc1cncc(-c2ccc3[nH]nc(-c4nc5c(-c6ccoc6)nccc5[nH]4)c3c2)c1`, the EC50 stood at 0.0435 µM in test [1], 0.03 µM in test [2] and 0.044 µM in test [3]. Also, the Emax at 0.3 µM in test [4] came out at 90.2%.

Take `CC(C)(C)CC(=O)Nc1cncc(-c2ccc3[nH]nc(-c4nc5ccncc5[nH]4)c3c2)c1`: the EC50 is 0.021 µM in test [1], 0.1 µM in test [2] and 0.003 µM in test [3]. In test [4], the Emax at 0.3 µM was 152%.

For the compound `c1csc(-c2ccnc3[nH]c(-c4n[nH]c5ccc(-c6cncc(OC7CCNCC7)c6)nc45)cc23)c1`, the EC50 came out at 3.55 µM in test [1], 0.3 µM in test [2] and 0.043 µM in test [3]. In addition, in test [4], the Emax at 0.3 µM came to 51.4%.

In the case of `Fc1cccc(-c2ccnc3[nH]c(-c4n[nH]c5ncc(-c6cn[nH]c6)cc45)nc23)c1`, the EC50 in test [1] came to 0.0302 µM; in test [2] it was 0.1 µM; in test [3], 0.016 µM. The Emax at 0.3 µM in test [4] came to 110%.

Take `CN1CCN(c2nccc3[nH]c(-c4n[nH]c5ccc(-c6cncc(CN7CCCCC7)c6)nc45)cc23)CC1`: the EC50 amounted to 4.16 µM in test [1], 0.01 µM in test [2] and 0.015 µM in test [3]. Also, the Emax at 0.3 µM in test [4] was 70.8%.

Turning to `Cc1ccncc1-c1ccc2[nH]nc(-c3nc4c(-c5ccsc5)nccc4[nH]3)c2c1`, the EC50 in test [1] was found to be 0.0189 µM; in test [2], 0.01 µM; in test [3], 0.052 µM. For the same compound, the Emax at 0.3 µM in test [4] turned out to be 156%.

For the compound `CCC(=O)Nc1cncc(-c2ccc3[nH]nc(-c4nc5c(N6CCCCC6)cncc5[nH]4)c3n2)c1`, the figures for the concentration for a half-maximal effect (EC50) in test [1], in test [2] and in test [3] were above 10 µM, 0.9 µM and 0.016 µM, respectively. The Emax at 0.3 µM in test [4] was found to be 69.8%.

As for `FC1(F)CCN(Cc2cncc(-c3ccc4[nH]nc(-c5cc6cnccc6[nH]5)c4n3)c2)C1`, the results for the EC50 in test [1], in test [2] and in test [3] were 0.045 µM, 0.3 µM and 0.003 µM, respectively. Further, the Emax at 0.3 µM in test [4] turned out to be 134%.

Turning to `CN1CCN(c2ccnc3[nH]c(-c4n[nH]c5cnc(-c6cncc(CNCC7CCCC7)c6)cc45)cc23)CC1`, the EC50 was above 10 µM in test [1], 0.3 µM in test [2] and 0.051 µM in test [3]. Moreover, in test [4], the Emax at 0.3 µM stood at 150%.

`O=C(Nc1ccnc(C(F)(F)F)c1)c1n[nH]c2ccc(-c3cncc(CN4CCCCC4)c3)cc12`: the values for the EC50 in test [1], in test [2] and in test [3] were 0.0364 µM, 0.1 µM and 0.004 µM, respectively. In addition, the Emax at 0.3 µM in test [4] was 69%.

Regarding `CN1CCN(c2cccc3[nH]c(-c4n[nH]c5ccc(-c6cncc(CN7CCCCC7)c6)cc45)cc23)CC1`, the values for the EC50 in test [1], in test [2] and in test [3] were 4.97 µM, 0.1 µM and 0.035 µM, respectively. The maximal effect (Emax) at 0.3 µM in test [4] is 198%.

Regarding `Nc1cncc(-c2cnc3[nH]nc(-c4cc5c(-c6ccccc6F)nccc5[nH]4)c3c2)c1`, the EC50 was determined as 0.197 µM in test [1], 0.03 µM in test [2] and 0.031 µM in test [3]. In test [4], the Emax at 0.3 µM is 86%.

Turning to `O=C(Nc1cncc(-c2cnc3[nH]nc(-c4nc5c(-c6cccnc6)cncc5[nH]4)c3c2)c1)C1CCC1`, the concentration for a half-maximal effect (EC50) was found to be 0.0354 µM in test [1], 0.3 µM in test [2] and 0.011 µM in test [3]. For the same compound, the Emax at 0.3 µM in test [4] came to 130%.

Regarding `CC(C)(C)C(=O)Nc1cncc(-c2ccc3[nH]nc(-c4nc5c(-c6ccc(F)s6)ccnc5[nH]4)c3c2)c1`, the EC50 in test [1] worked out at 0.0167 µM; in test [2], 0.03 µM; in test [3], 0.098 µM. The Emax at 0.3 µM in test [4] came out at 120%.

As for `Nc1cncc(-c2ccc3[nH]nc(-c4cc5c(-c6cccnc6)nccc5[nH]4)c3c2)c1`, the results for the half-maximal effective concentration (EC50) in test [1], in test [2] and in test [3] were 0.146 µM, 0.1 µM and 0.002 µM, respectively. In addition, the maximal response (Emax) at 0.3 µM in test [4] amounted to 178%.

With `O=C(Nc1cncc(-c2ccc3[nH]nc(-c4nc5c(-c6ccc(F)cc6)cncc5[nH]4)c3c2)c1)C1CCC1`, the EC50 in test [1] stood at 0.0057 µM; in test [2], 0.1 µM; in test [3] it was 0.073 µM. In addition, the Emax at 0.3 µM in test [4] is 203%.

As to `Cc1cncc(NC(=O)c2n[nH]c3ccc(-c4cncc(CN5CCCCC5)c4)cc23)c1`, the EC50 in test [1] amounted to 0.059 µM; in test [2], 0.3 µM. Further, the Emax at 0.3 µM in test [4] worked out at 68.3%.

Take `COc1ccc(NC(=O)c2n[nH]c3ccc(-c4cncc(CN5CCC(F)(F)C5)c4)cc23)cn1`: the results for the EC50 in test [1] and in test [2] were 0.005 µM and 0.1 µM, respectively. In addition, the Emax at 0.3 µM in test [4] was found to be 72.2%.

Turning to `c1cncc(-c2ccc3[nH]nc(-c4nc5c(-c6cccnc6)cncc5[nH]4)c3c2)c1`, the EC50 stood at 0.035 µM in test [1], 0.03 µM in test [2] and 0.076 µM in test [3]. Besides, in test [4], the Emax at 0.3 µM came out at 159%.

Take `CC(C)(C)C(=O)Nc1cncc(-c2cnc3[nH]nc(-c4nc5c(-c6ccoc6)cncc5[nH]4)c3c2)c1`: the EC50 is 0.07 µM in test [1], 0.03 µM in test [2] and 0.012 µM in test [3]. Moreover, the Emax at 0.3 µM in test [4] came out at 144%.

For `CN(C)Cc1cncc(-c2cc3c(-c4nc5c(-c6cccc(F)c6)cccc5[nH]4)n[nH]c3cn2)c1`, the EC50 is 0.0822 µM in test [1], 0.1 µM in test [2] and 0.015 µM in test [3]. For the same compound, the Emax at 0.3 µM in test [4] is 311%.
